Test results published in patent US20240246940A1, “HETEROARYL DERIVATIVE COMPOUND AND USE THEREOF” (VORONOI INC., priority 2021, published 2024).

What was measured:
[1] = system: SK-BR-3 cells (HER2 overexpressing cell line); assay: SK-BR-3 cell proliferation inhibitory activity (CellTiter-Glo, 120 hours); type: cell-based; settings: Homo sapiens
Method: (§1) To evaluate the cell proliferation inhibitory activity of the compound according to the present invention on HER2 and EGFR kinases, the following method was performed using HER2 overexpressing cell lines (SK-BR-3, BT-474, and N-87) and EGFR expressing cell line (HaCaT).
(§2) McCOY'S 5A supplemented with 10% FBS was used for SK-BR-3 cells, RPMI-1640 medium supplemented with 20% FBS was used for BT-474 cancer cells, and RPMI-1640 medium supplemented with 10% FBS was used for N-87 cancer cells. DMEM supplemented with 10% FBS was used for HaCaT cells.
(§3) For SK-BR-3 cells, 5000 cells were aliquoted into each well of a white clear bottom 96 well plate (Corning) 48 hours before treatment with the compounds of Examples. For BT-474 cells, 5000 cells were aliquoted into each well of a white clear bottom 96 well plate (Corning) 48 hours before treatment with the compounds of Examples. For N-87 cells, 5000 cells were aliquoted into each well of a white clear bottom 96 well plate (Corning) 24 hours before treatment with the compounds of Examples. For HaCaT cells, 3000 cells were aliquoted into each well of a white clear bottom 96 well plate (Corning) 24 hours before treatment with the compounds of Examples. For SK-BR-3 cells and BT-474 cells, the compounds of Examples were diluted in dimethyl sulfoxide (three-fold dilution, a total of 11 concentrations) and injected each in an amount of 1 μl to a final concentration of 0.2 nM to 10 μM. For N-87 cells, the compounds of Examples were diluted in dimethyl sulfoxide (five-fold dilution, a total of 11 concentrations) and injected each in an amount of 0.5 μl to a final concentration of […] to 5 μM. For HaCaT cells, the compounds of Examples were diluted in dimethyl sulfoxide (three-fold dilution, a total of 11 concentrations) and injected each in an amount of 0.5 μl to a final concentration of 0.8 nM to 45 μM. For the measurement of living cells, the cells were stored at room temperature for 10 minutes using CellTiter-Glo cell viability reagent (Promega) after a certain period of time (SK-BR-3: 120 hours, BT-474: 120 hours, N-87: 72 hours, and HaCaT: 72 hours) post treatment with the compounds of Examples, and the luminescence intensity thereof was measured using a reader (SynergyNeo, Biotek). Each test was repeated three times.
(§4) The result values were calculated as a cell growth rate (%) compared to those of the control group. A graph was created using the GraphPad Prism version 5.0 program, and GI50 values were calculated.

[2] = system: HaCaT cells (EGFR expressing cell line); assay: HaCaT cell proliferation inhibitory activity (CellTiter-Glo, 72 hours); type: cell-based; settings: Homo sapiens
Method: as §1, §2, §3, §4

C=CC(=O)N1CC(Oc2cc3c(Nc4cc(-c5ccc6ccn(C)c6c5)ccc4OC)ncnc3cc2OC)C1 [Example 34, 1-(3-((7-methoxy-4-((2-methoxy-5-(1-methyl-1H-indol-6-yl)phenyl)amino)quinazolin-6-yl)oxy)azetidin-1-yl)prop-2-en-1-one] was tested. Which GI50 [1] did it give?
Its GI50 is > 1000 nM.

And the GI50 [2]?
The GI50 was 150 to 1000 nM.

C=CC(=O)N1CC2CC1CC2Oc1cc2c(Nc3cc(-c4ccco4)ccc3OC)ncnc2cc1OC (centres unmarked) [Example 115, 1-(5-((4-((5-(furan-2-yl)-2-methoxyphenyl)amino)-7-methoxy-quinazolin-6-yl)oxy)-2-azabicyclo[2. 2.1]heptan-2-yl)prop-2-en-1-one] was tested. Which GI50 [1] did it give?
Its GI50 is 150 to 1000 nM.

What about the GI50 [2] of the same compound?
Its GI50 is ≤ 150 nM.

What does the source list for C=CC(=O)N1CC(Oc2cc3c(Nc4cc(-c5cccc(Cl)c5F)ccc4OC)ncnc3cc2OC)C1 [Example 20, 1-(3-((4-((3′-chloro-2′-fluoro-4-methoxy-[1,1′-biphenyl]-3-yl)amino)-7-methoxy-quinazolin-6-yl)oxy)azetidin-1-yl)prop-2-en-1-one]?
GI50 [1]: ≤ 150 nM; GI50 [2]: ≤ 150 nM

How did the GI50 [1] turn out when C=CC(=O)N1CCC(Oc2cc3c(Nc4cc(-c5ccco5)ccc4OCCOC)ncnc3cc2OC)CC1 [Example 259, 1-(4-((4-((5-(furan-2-yl)-2-(2-methoxyethoxy)phenyl)amino)-7-methoxyquinazolin-6-yl)oxy)piperidin-1-yl)prop-2-en-1-one] was run?
The GI50 was ≤ 150 nM.

And the GI50 [2]?
The GI50 was ≤ 150 nM.

What does the source list for C=CC(=O)N1CCC(Nc2cc3c(Nc4cc(-c5ccco5)ccc4OC)ncnc3cc2O[C@H]2CCOC2)CC1 [Example 279, (S)-1-(4-((4-((5-(furan-2-yl)-2-methoxyphenyl)amino)-7-((tetrahydrofuran-3-yl)oxy)quinazolin-6-yl)amino)piperidin-1-yl)prop-2-en-1-one]?
GI50 [1]: ≤ 150 nM; GI50 [2]: ≤ 150 nM

What does the source list for C=CC(=O)N1CC(Oc2cc3c(Nc4cc(-c5csc6ccccc56)ccc4OC)ncnc3cc2OC)C1 [Example 41, 1-(3-((4-((5-(benzo[b]thiophen-3-yl)-2-methoxyphenyl)amino)-7-methoxy-quinazolin-6-yl)oxy)azetidin-1-yl)prop-2-en-1-one]?
GI50 [1]: ≤ 150 nM; GI50 [2]: ≤ 150 nM

For C=CC(=O)N1CCC(Oc2cc3c(Nc4cc(-c5ccnn5C)ccc4OC)ncnc3cc2OC)C1 (centres unmarked) [Example 61, 1-(3-((7-methoxy-4-((2-methoxy-5-(1-methyl-1H-pyrazol-5-yl)phenyl)amino)quinazolin-6-yl)oxy)pyrrolidin-1-yl)prop-2-en-1-one], which GI50 [1] is on record?
Its GI50 is 150 to 1000 nM.

And the GI50 [2]?
The GI50 was > 1000 nM.

C=CC(=O)N1CC(Oc2cc3c(Nc4cc(-c5ccn6ncnc6c5)ccc4OC4CCN(C)C4)ncnc3cc2OC)C1 (centres unmarked) [Example 242] was tested. Which GI50 [1] did it give?
The GI50 was 150 to 1000 nM.

What about the GI50 [2] of the same compound?
Its GI50 is ≤ 150 nM.

C=CC(=O)N1CCC(Oc2cc3c(Nc4cc(-c5ccco5)ccc4OC)ncnc3cc2OCC)CC1 [Example 238, 1-(4-((7-ethoxy-4-((5-(furan-2-yl)-2-methoxyphenyl)amino)quinazolin-6-yl)oxy)piperidin-1-yl)prop-2-en-1-one] was tested. Which GI50 [1] did it give?
Its GI50 is ≤ 150 nM.

What about the GI50 [2] of the same compound?
Its GI50 is ≤ 150 nM.

How did the GI50 [1] turn out when C=CC(=O)N1CC(Oc2cc3c(Nc4cc(-c5ccc(C#N)cc5)ccc4OC)ncnc3cc2OC)C1 [Example 26, 3′-((6-((1-acryloylazetidin-3-yl)oxy)-7-methoxy-quinazolin-4-yl)amino)-4′-methoxy-[1,1′-biphenyl]-4-carbonitrile] was run?
The GI50 was ≤ 150 nM.

What about the GI50 [2] of the same compound?
Its GI50 is ≤ 150 nM.

Which GI50 [1] does the source give for C=CC(=O)N1CCC(Oc2cc3c(Nc4cc(-c5cccs5)ccc4OC)ncnc3cc2OC)C(F)C1 (centres unmarked) [Example 144, 1-(3-fluoro-4-((7-methoxy-4-((2-methoxy-5-(thiophen-2-yl)phenyl)amino)quinazolin-6-yl)oxy)piperidin-1-yl)prop-2-en-1-one] here?
Its GI50 is ≤ 150 nM.

What about the GI50 [2] of the same compound?
The GI50 was ≤ 150 nM.

For C=CC(=O)N1CC(Oc2cc3c(Nc4cc(-c5ccc(F)c(C#N)c5)ccc4OC)ncnc3cc2OC)C1 [Example 14, 3′-((6-((1-acryloylazetidin-3-yl)oxy)-7-methoxy-quinazolin-4-yl)amino)-4-fluoro-4′-methoxy-[1,1′-biphenyl]-3-carbonitrile], which GI50 [1] is on record?
The GI50 was ≤ 150 nM.

And the GI50 [2]?
The GI50 was ≤ 150 nM.

What does the source list for C=CC(=O)N1CC(Oc2cc3c(Nc4cc(-c5cccc6ncnn56)ccc4OC)ncnc3cc2OC)C1 [Example 128, 1-(3-((4-((5-([1,2,4]triazolo[1,5-a]pyridin-5-yl)-2-methoxyphenyl)amino)-7-methoxy-quinazolin-6-yl)oxy)azetidin-1-yl)prop-2-en-1-one]?
GI50 [1]: 150 to 1000 nM; GI50 [2]: 150 to 1000 nM

Which results are given for C=CC(=O)N1CC(Oc2cc3c(Nc4cc(-c5cccc(C#N)c5)ccc4OC)ncnc3cc2OC)C1 [Example 12, 3′-((6-((1-acryloylazetidin-3-yl)oxy)-7-methoxy-quinazolin-4-yl)amino)-4′-methoxy-[1,1′-biphenyl]-3-carbonitrile]?
GI50 [1]: ≤ 150 nM; GI50 [2]: ≤ 150 nM

Which results are given for C=CC(=O)N1CCC(Nc2cc3c(Nc4cc(-c5ccco5)ccc4OC)ncnc3cc2OCCCOC)CC1 [Example 274, 1-(4-((4-((5-(furan-2-yl)-2-methoxyphenyl)amino)-7-(3-methoxypropoxy)quinazolin-6-yl)amino)piperidin-1-yl)prop-2-en-1-one]?
GI50 [1]: ≤ 150 nM; GI50 [2]: ≤ 150 nM

With C=CC(=O)N1CCC(Oc2cc3c(Nc4cc(-c5ccco5)ccc4OC)ncnc3cc2OC)C(F)(F)C1 (centres unmarked) [Example 111, 1-(3,3-difluoro-4-((4-((5-(furan-2-yl)-2-methoxyphenyl)amino)-7-methoxy-quinazolin-6-yl)oxy)piperidin-1-yl)prop-2-en-1-one] as the compound, how does the GI50 [1] read?
The GI50 was ≤ 150 nM.

What about the GI50 [2] of the same compound?
The GI50 was ≤ 150 nM.

What does the source list for C=CC(=O)N1CCC(Oc2cc3c(Nc4cc(-c5ccco5)ncc4OC)ncnc3cc2OC)CC1 [Example 105, 1-(4-((4-((2-(furan-2-yl)-5-methoxypyridin-4-yl)amino)-7-methoxy-quinazolin-6-yl)oxy)piperidin-1-yl)prop-2-en-1-one]?
GI50 [1]: ≤ 150 nM; GI50 [2]: ≤ 150 nM

Which GI50 [1] does the source give for C=CC(=O)N1CCC(Oc2cc3c(Nc4cc(-c5cccs5)ccc4OC4CCN(C)C4)ncnc3cc2OC)CC1 (centres unmarked) [Example 250, 1-(4-((7-methoxy-4-((2-((1-methylpyrrolidin-3-yl)oxy)-5-(thiophen-2-yl)phenyl)amino)quinazolin-6-yl)oxy)piperidin-1-yl)prop-2-en-1-one] here?
The GI50 was ≤ 150 nM.

What about the GI50 [2] of the same compound?
Its GI50 is ≤ 150 nM.

How did the GI50 [1] turn out when C=CC(=O)N1CC(Oc2cc3c(Nc4cc(-c5cccc6ncsc56)ccc4OC)ncnc3cc2OC)C1 [Example 36, 1-(3-((4-((5-(benzo[d]thiazol-7-yl)-2-methoxyphenyl)amino)-7-methoxy-quinazolin-6-yl)oxy)azetidin-1-yl)prop-2-en-1-one] was run?
The GI50 was 150 to 1000 nM.

What about the GI50 [2] of the same compound?
The GI50 was 150 to 1000 nM.

For C=CC(=O)Nc1cc2c(Nc3cc(-c4ccco4)ccc3OC)ncnc2cc1OCCCN1CCOCC1 [Example 277, N-(4-((5-(furan-2-yl)-2-methoxyphenyl)amino)-7-(3-morpholinopropoxy)quinazolin-6-yl)acrylamide], which GI50 [1] is on record?
The GI50 was ≤ 150 nM.

And the GI50 [2]?
Its GI50 is ≤ 150 nM.

Which results are given for C=CC(=O)N1CC(Oc2cc3c(Nc4cc(-c5ccc(F)cc5C)ccc4OC)ncnc3cc2OC)C1 [Example 25, 1-(3-((4-((4'-fluoro-4-methoxy-2′-methyl-[1,1′-biphenyl]-3-yl)amino)-7-methoxy-quinazolin-6-yl)oxy)azetidin-1-yl)prop-2-en-1-one]?
GI50 [1]: ≤ 150 nM; GI50 [2]: ≤ 150 nM

C=CC(=O)N1CC(Oc2cc3c(Nc4cc(-c5ccc(Cl)c(F)c5)ccc4OC)ncnc3cc2OC)C1 [Example 28, 1-(3-((4-((4′-chloro-3′-fluoro-4-methoxy-[1,1′-biphenyl]-3-yl)amino)-7-methoxy-quinazolin-6-yl)oxy)azetidin-1-yl)prop-2-en-1-one] was tested. Which GI50 [1] did it give?
The GI50 was 150 to 1000 nM.

What about the GI50 [2] of the same compound?
The GI50 was 150 to 1000 nM.

C=CC(=O)N1CC(Oc2cc3c(Nc4cc(-c5ccc(F)c(F)c5)ccc4OC)ncnc3cc2OC)C1 [Example 29, 1-(3-((4-((3′,4′-difluoro-4-methoxy-[1,1′-biphenyl]-3-yl)amino)-7-methoxy-quinazolin-6-yl)oxy)azetidin-1-yl)prop-2-en-1-one] was tested. Which GI50 [1] did it give?
The GI50 was ≤ 150 nM.

What about the GI50 [2] of the same compound?
The GI50 was ≤ 150 nM.

For C=CC(=O)N1CC(Oc2cc3c(Nc4cc(-c5ccco5)ccc4OCC)ncnc3cc2OC)C1 [Example 55, 1-(3-((4-((2-ethoxy-5-(furan-2-yl)phenyl)amino)-7-methoxy-quinazolin-6-yl)oxy)azetidin-1-yl)prop-2-en-1-one], which GI50 [1] is on record?
Its GI50 is ≤ 150 nM.

And the GI50 [2]?
Its GI50 is ≤ 150 nM.

How did the GI50 [1] turn out when C=CC(=O)N1CCC(Oc2cc3c(Nc4cc(-c5ccco5)ccc4OCC)ncnc3cc2OC)CC1 [Example 118, 1-(4-((4-((2-ethoxy-5-(furan-2-yl)phenyl)amino)-7-methoxy-quinazolin-6-yl)oxy)piperidin-1-yl)prop-2-en-1-one] was run?
The GI50 was ≤ 150 nM.

And the GI50 [2]?
Its GI50 is ≤ 150 nM.
